One assay addresses human M2 receptor (Homo sapiens (Human), UniProt P08172). Description: Radioligand (tritiated N-methylscopolamine) binding assay, M2. The conditions noted are these: CHO cell membranes expressing human M2; 1.5 nM tritiated N-methylscopolamine; 90 min, 37° C.; read-out: Ki against M2 receptor (Table 21, M2). As to the method: (§1) Binding affinity (Ki) of compounds was measured by inhibition of radioligand binding to membranes from CHO cells expressing human M1, M2, M3, M4 and M5 receptors. Membranes were prepared by nitrogen cavitation and differential centrifugation as previously described (Hoare et al., Mol. Pharmacol. 2003 March; 63(3): 751-65). The radioligand employed was tritiated N-methylscopolamine, used at a concentration of 1.5 nM. A dose-response of twelve concentrations of compound was used, ranging from 10 μM to […]. The assay buffer was 50 mM HEPES, 100 mM NaCl, 5 mM MgCl2, 1 mM ethylenediaminetetraacetic acid, pH-adjusted to pH 7.4. Membranes, radioligand and compound were incubated together for 90 minutes at 37° C., in a total volume of 150 μl in a 96-well plate. Receptor-bound radioligand was then collected by harvesting the assay over glass fiber filters pretreated with polyethylenimine to trap the cell membranes, using rapid vacuum filtration. Harvesting and radioactivity counting was conducted as previously described (see, e.g., Hoare et al., Mol. Pharmacol. 2003 63(3):751-65); Erratum at Mol. Pharmacol. 2005 July; 68(1): 260).

In the next assay the target is human M1 receptor (Homo sapiens (Human), UniProt P11229). Description: Radioligand (tritiated N-methylscopolamine) binding assay, M1. The conditions noted are these: CHO cell membranes expressing human M1; 1.5 nM tritiated N-methylscopolamine; 90 min, 37° C.; read-out: Ki against M1 receptor (Table 21, M1). As to the method:
as §1

A further assay deals with human M4 receptor (Homo sapiens (Human), UniProt P08173). Description: Radioligand (tritiated N-methylscopolamine) binding assay, M4. Particulars: Ki against the M4 receptor; membranes from CHO cells expressing human M4; tritiated N-methylscopolamine 1.5 nM; read-out: Ki. The gist of the method: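 Compounds were tested at twelve concentrations ranging from 10 μM to […] against 1.5 nM radioligand on CHO cell membranes expressing each subtype. Incubation lasts 90 min at 37 °C in HEPES-buffered saline with Mg2+ and EDTA, pH 7.4, and filtration then separates bound radioligand.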
Chain of human M4 receptor (P08173 whole entry): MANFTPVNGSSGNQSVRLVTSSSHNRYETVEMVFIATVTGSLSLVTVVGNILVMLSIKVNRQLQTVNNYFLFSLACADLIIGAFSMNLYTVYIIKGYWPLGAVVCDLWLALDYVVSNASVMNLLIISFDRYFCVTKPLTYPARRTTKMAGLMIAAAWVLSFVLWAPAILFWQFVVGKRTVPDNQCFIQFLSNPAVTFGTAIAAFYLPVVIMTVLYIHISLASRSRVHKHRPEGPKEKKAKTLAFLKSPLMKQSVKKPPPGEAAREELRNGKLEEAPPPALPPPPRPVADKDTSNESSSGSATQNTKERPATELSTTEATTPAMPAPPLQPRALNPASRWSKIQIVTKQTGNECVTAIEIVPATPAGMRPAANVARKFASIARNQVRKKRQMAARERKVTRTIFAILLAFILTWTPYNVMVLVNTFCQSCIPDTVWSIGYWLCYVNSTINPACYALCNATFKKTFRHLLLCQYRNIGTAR

Chain of human M2 receptor (P08172 whole entry): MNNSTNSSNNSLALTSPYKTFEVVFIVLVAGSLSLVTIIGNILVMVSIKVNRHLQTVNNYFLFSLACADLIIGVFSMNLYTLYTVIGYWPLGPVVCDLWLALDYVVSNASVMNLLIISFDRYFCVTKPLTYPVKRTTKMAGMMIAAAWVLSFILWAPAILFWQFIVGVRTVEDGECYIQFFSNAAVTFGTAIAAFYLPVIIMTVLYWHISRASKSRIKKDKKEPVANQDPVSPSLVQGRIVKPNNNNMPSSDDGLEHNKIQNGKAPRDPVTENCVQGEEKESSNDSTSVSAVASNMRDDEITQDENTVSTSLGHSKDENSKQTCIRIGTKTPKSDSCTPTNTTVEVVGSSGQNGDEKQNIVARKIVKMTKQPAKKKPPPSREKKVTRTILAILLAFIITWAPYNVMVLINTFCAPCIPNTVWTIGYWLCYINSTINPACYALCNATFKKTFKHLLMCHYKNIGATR
Chain of human M1 receptor (P11229 whole entry): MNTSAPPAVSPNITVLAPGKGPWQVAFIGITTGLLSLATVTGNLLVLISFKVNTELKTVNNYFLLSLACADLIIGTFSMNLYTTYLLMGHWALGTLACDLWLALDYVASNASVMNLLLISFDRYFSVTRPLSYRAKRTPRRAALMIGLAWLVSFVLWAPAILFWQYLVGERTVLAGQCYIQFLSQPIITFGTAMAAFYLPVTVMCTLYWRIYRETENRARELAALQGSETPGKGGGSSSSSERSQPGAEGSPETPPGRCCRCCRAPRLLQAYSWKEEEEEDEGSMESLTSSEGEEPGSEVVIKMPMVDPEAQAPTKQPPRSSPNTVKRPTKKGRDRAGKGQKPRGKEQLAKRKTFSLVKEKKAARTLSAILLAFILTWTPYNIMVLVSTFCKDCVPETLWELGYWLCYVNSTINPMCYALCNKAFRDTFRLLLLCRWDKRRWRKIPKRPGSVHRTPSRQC

For the molecule `O=C(NCCC1CCN(Cc2ccccc2)CC1)C1CCN(c2cc(F)c(F)c(F)c2)CC1` [10-43, N-[2-(1-benzylpiperidin-4-yl)ethyl]-1-(3,4,5-trifluorophenyl)piperidine-4-carboxamide], the inhibition constant Ki – broadly, a measure of affinity in units of concentration, obtained from inhibition or displacement – at human M2 receptor was 100 to 1000 nM.

For the molecule `O=C(NCCC1CCN(Cc2ccccc2)CC1)C1CCN(c2ccc(OC(F)(F)F)c(F)c2)CC1` [10-44, N-[2-(1-benzylpiperidin-4-yl)ethyl]-1-[3-fluoro-4-(trifluoromethoxy)phenyl]piperidine-4-carboxamide], the Ki at human M2 receptor is 100 to 1000 nM.

As for `CC1CN(c2ccc(OC(F)(F)F)cc2)CCC1C(=O)NCCC1CCN(Cc2ccccc2)CC1` (stereo not drawn) [10-42, N-[2-(1-benzylpiperidin-4-yl)ethyl]-3-methyl-1-[4-(trifluoromethoxy)phenyl]piperidine-4-carboxamide], the inhibitory constant (Ki) at human M2 receptor and on human M1 receptor was 100 to 1000 nM throughout.

As for `O=C(NCC(O)C1CCN(Cc2ccccc2)CC1)C1CCN(c2ccc(OC(F)(F)F)cc2)CC1` (stereo not drawn) [9-71, N-[2-(1-benzylpiperidin-4-yl)-2-hydroxyethyl]-1-[4-(trifluoromethoxy)phenyl]piperidine-4-carboxamide], the Ki at human M2 receptor was 100 to 1000 nM.

Take `CO[C@H](CNC(=O)N1CCN(c2ccc(F)c(C#N)c2)C[C@H]1C)C1CCN(Cc2ccccc2)CC1` [3-6, (2R)-N-[(2S)-2-(1-benzylpiperidin-4-yl)-2-methoxyethyl]-4-(3-cyano-4-fluorophenyl)-2-methylpiperazine-1-carboxamide]: the inhibitory constant (Ki) at human M4 receptor lay within 10 to 100 nM.

In the case of `C[C@@H]1CN(c2ccc(C#N)cc2F)CCN1C(=O)NCCC1CCN(Cc2ccccc2)CC1` [4-43, (2R)-N-[2-(1-benzylpiperidin-4-yl)ethyl]-4-(4-cyano-2-fluorophenyl)-2-methylpiperazine-1-carboxamide], the Ki at human M4 receptor was in the range of 10 to 100 nM.

Regarding `C[C@@H]1CN(c2ccc(C#N)s2)CCN1C(=O)NCCC1CCN(Cc2ccccc2)CC1` [4-44, (2R)-N-[2-(1-benzylpiperidin-4-yl)ethyl]-4-(5-cyanothiophen-2-yl)-2-methylpiperazine-1-carboxamide], the Ki on human M4 receptor lay within 10 to 100 nM.

In the case of `O=C(NCCC1CCN(Cc2ccc(F)cc2)CC1)c1ccc(OCc2ccccc2)cc1` [6-15, 4-(benzyloxy)-N-(2-{1-[(4-fluorophenyl)methyl]piperidin-4-yl}ethyl)benzamide], at human M4 receptor, the Ki lay within 10 to 100 nM.

For the molecule `O=C(NCCC1CCN(Cc2ccccc2)CC1)c1ccc(-c2ccc(Cl)cc2)cc1F` [9-12, N-[2-(1-benzylpiperidin-4-yl)ethyl]-4-(4-chlorophenyl)-2-fluorobenzamide], at human M4 receptor, the Ki lay within 10 to 100 nM.

Turning to `O=C(NCCC1CCN(Cc2ccccc2)CC1)C1CCN(c2ccc(F)cc2)CC1` [10-35, N-[2-(1-benzylpiperidin-4-yl)ethyl]-1-(4-fluorophenyl)piperidine-4-carboxamide], the Ki on human M4 receptor fell in the range of 10 to 100 nM.

As for `COc1cccc(CN2CCC(CCNC(=O)c3cnc4cc(-c5ccccc5)nn4c3C)CC2)c1` [19-7], the Ki at human M4 receptor fell in the range of 100 to 1000 nM.

As for `N#Cc1ccc(N2CCC(C(=O)NCCC3CCN(Cc4ccccc4)CC3)CC2)cc1F` [10-78, N-[2-(1-benzylpiperidin-4-yl)ethyl]-1-(4-cyano-3-fluorophenyl)piperidine-4-carboxamide], the Ki at human M4 receptor fell in the range of 10 to 100 nM.

As for `O=C(OCCC1CCN(Cc2ccccc2)CC1)N1CCN(c2ccc(OC(F)(F)F)cc2)CC1` [12-1, 2-(1-benzylpiperidin-4-yl)ethyl 4-[4-(trifluoromethoxy)phenyl]piperazine-1-carboxylate], the Ki on human M4 receptor lay in the range of 10 to 100 nM.

As for `O=C(NCCC1CCN(Cc2ccccc2)CC1)c1ccc(-c2ccc(F)cc2)cc1` [9-41, N-[2-(1-benzylpiperidin-4-yl)ethyl]-4-(4-fluorophenyl)benzamide], the Ki on human M4 receptor is 10 to 100 nM.

`O=C(NCCC1CCN(Cc2ccccc2)CC1)N1CCC(c2nc3ccccc3s2)CC1` [8-14, 4-(1,3-benzothiazol-2-yl)-N-[2-(1-benzylpiperidin-4-yl)ethyl]piperidine-1-carboxamide]: the inhibitory constant (Ki) at human M4 receptor was 10 to 100 nM.

On to `C[C@@H]1CN(c2ncc(C#N)cn2)C[C@H](C)N1C(=O)NCCC1CCN(CC2CCCCC2)CC1` [21-1, (2R,6S)-4-(5-cyanopyrimidin-2-yl)-N-{2-[1-(cyclohexylmethyl)piperidin-4-yl]ethyl}-2,6-dimethylpiperazine-1-carboxamide], for which, at human M4 receptor, the inhibition constant Ki lay within 10 to 100 nM.

Take `C[C@@H]1CN(c2ncc(C#N)cc2F)C[C@H](C)N1C(=O)NCCC1CCN(Cc2ccccc2)CC1` [4-78, (2S,6R)-N-[2-(1-benzylpiperidin-4-yl)ethyl]-4-(5-cyano-3-fluoropyridin-2-yl)-2,6-dimethylpiperazine-1-carboxamide]: the Ki at human M4 receptor was in the range of 10 to 100 nM.

With `Cc1cc(C)nc(N2CCC(C(=O)NCCC3CCN(Cc4ccccc4)CC3)CC2)n1` [10-74, N-[2-(1-benzylpiperidin-4-yl)ethyl]-1-(4,6-dimethylpyrimidin-2-yl)piperidine-4-carboxamide], the inhibition constant Ki at human M4 receptor fell in the range of 100 to 1000 nM.

Consider `CN(CCNC(=O)C1CCN(c2cccc(OC(F)(F)F)c2)CC1)[C@H]1CCN(Cc2ccccc2)C1` [9-31, N-(2-{[(3S)-1-benzylpyrrolidin-3-yl](methyl)amino}ethyl)-1-[3-(trifluoromethoxy)phenyl]piperidine-4-carboxamide], for which the Ki at human M4 receptor lay within 10 to 100 nM.

`C[C@@H]1CN(c2ncc(C(F)(F)F)cn2)CCN1C(=O)NCCC1CCN(Cc2ccncc2)CC1` [6-31, (2R)-2-methyl-N-{2-[1-(pyridin-4-ylmethyl)piperidin-4-yl]ethyl}-4-[5-(trifluoromethyl)pyrimidin-2-yl]piperazine-1-carboxamide]: the inhibition constant (Ki) at human M4 receptor is 100 to 1000 nM.

On to `O=C(NCCC1CCN(Cc2ccc3[nH]ccc3c2)CC1)C1CCN(c2ccc(OC(F)(F)F)cc2)CC1` [11-22, N-{2-[1-(1H-indol-5-ylmethyl)piperidin-4-yl]ethyl}-1-[4-(trifluoromethoxy)phenyl]piperidine-4-carboxamide], for which the inhibitory constant (Ki) at human M4 receptor is 100 to 1000 nM.

For the molecule `C[C@@H]1CN(c2ncc(C#N)c(NCC(F)(F)F)n2)CCN1C(=O)NCCC1CCN(Cc2ccccc2)CC1` [5-7, (2R)-N-[2-(1-benzylpiperidin-4-yl)ethyl]-4-{5-cyano-4-[(2,2,2-trifluoroethyl)amino]pyrimidin-2-yl}-2-methylpiperazine-1-carboxamide], the inhibition constant Ki on human M4 receptor lay in the range of 10 to 100 nM.

On to `CCNC(=O)c1cnc(N2CCN(C(=O)NCCC3CCN(Cc4ccccc4)CC3)[C@H](C)C2)nc1` [27-16], for which the Ki at human M4 receptor is 100 to 1000 nM.

In the case of `C[C@@H]1CN(c2cncc(F)c2)CCN1C(=O)NCCC1CCN(Cc2ccccc2)CC1` [4-61, (2R)-N-[2-(1-benzylpiperidin-4-yl)ethyl]-4-(5-fluoropyridin-3-yl)-2-methylpiperazine-1-carboxamide], the Ki on human M4 receptor lay within 100 to 1000 nM.

Consider `O=C(NCCC1CCN(Cc2ccccc2)CC1)N1CCN(c2ccc(Cl)cc2)CC1` [8-13, N-[2-(1-benzylpiperidin-4-yl)ethyl]-4-(4-chlorophenyl)piperazine-1-carboxamide], for which the Ki at human M4 receptor fell in the range of 10 to 100 nM.

Consider `C[C@@H]1CN(c2ncc(C#N)cn2)C[C@H](C)N1C(=O)NCCC1CCN(Cc2ccc3c(c2)nnn3C)CC1` [6-66, (2R,6S)-4-(5-cyanopyrimidin-2-yl)-2,6-dimethyl-N-(2-{1-[(1-methyl-1H-1,2,3-benzotriazol-5-yl)methyl]piperidin-4-yl}ethyl)piperazine-1-carboxamide], for which the Ki at human M4 receptor fell in the range of 100 to 1000 nM.

Regarding `N#Cc1cc(N2CCC(C(=O)NC[C@H](O)C3CCN(Cc4ccccc4)CC3)CC2)ccc1F` [9-15, N-[(2R)-2-(1-benzylpiperidin-4-yl)-2-hydroxyethyl]-1-(3-cyano-4-fluorophenyl)piperidine-4-carboxamide], on human M4 receptor, the Ki lay within 10 to 100 nM.

Regarding `O=C(CCC1CCN(Cc2ccccc2)CC1)NC1CCN(c2cccc(OC(F)(F)F)c2)CC1` [9-50, 3-(1-benzylpiperidin-4-yl)-N-{1-[3-(trifluoromethoxy)phenyl]piperidin-4-yl}propanamide], the Ki at human M4 receptor was in the range of 100 to 1000 nM.

`O=C(NCCC1CCN(Cc2ccccc2)CC1)C1(O)CCN(c2ccc(OC(F)(F)F)cn2)CC1` [10-61, N-[2-(1-benzylpiperidin-4-yl)ethyl]-4-hydroxy-1-[5-(trifluoromethoxy)pyridin-2-yl]piperidine-4-carboxamide]: the Ki at human M4 receptor fell in the range of 100 to 1000 nM.

Turning to `Cc1cc(Cl)c(-c2cc(C(=O)NCCC3CCN(Cc4ccccc4)CC3)ccc2Cl)cn1` [9-67, N-[2-(1-benzylpiperidin-4-yl)ethyl]-4-chloro-3-(4-chloro-6-methylpyridin-3-yl)benzamide], the inhibitory constant (Ki) at human M4 receptor is 100 to 1000 nM.

As for `O=C(NC1CCN(c2ccc(F)cc2)CC1)OCCC1CCN(Cc2ccccc2)CC1` [12-6, 2-(1-benzylpiperidin-4-yl)ethyl N-[1-(4-fluorophenyl)piperidin-4-yl]carbamate], on human M4 receptor, the Ki was 100 to 1000 nM.

Take `O=C(NCCC1CCN(Cc2ccccc2)CC1)N1CCN(c2cc(F)c(F)c(F)c2)CC1` [4-74, N-[2-(1-benzylpiperidin-4-yl)ethyl]-4-(3,4,5-trifluorophenyl)piperazine-1-carboxamide]: at human M4 receptor, the Ki lay within 10 to 100 nM.

For the origin of these results see US11033539B2, “Compounds of formulas (VII), (VIII), (IX), (XI), (XII), (XIII), and (XIV) as muscarinic receptor 4(M4) antagonists for treating neurological diseases” (Neurocrine Biosciences, Inc., priority 2015, dated 2021).
